# Test results: patent publication US12274781B2, “Use of enzyme-modified isoquercitrin” (SAN-EI GEN F.F.I., INC., priority 2015, dated 2025)
# Entries after “also recorded” stand apart in the source; their conditions may differ.
# Tests used:
# [1] = tested on: saliva secretion in healthy persons; assay: Salivation-promoting effect of aqueous solutions, non-thickened or thickened with xanthan gum (Experimental Examples 1 and 2); format: in vivo, human; conditions: for Amount of salivation (standardized with water): average of 3 panelists, water = 1; for Salivation-promoting (saliva secretion-increasing) effect, in words: Experimental Example 1, aqueous solutions, equimolar in terms of rutin, humans; for Enhancement of the salivation-promoting effect by incorporating a thickening polysaccharide (thickening), in words: Experimental Example 2, 150 μM, 0.1 mass % xanthan gum
# Protocol: Using 3 healthy persons (males, average age: 31.3 years old) as panelists, the salivation-promoting effect of the test samples prepared above was evaluated. Persons whose circadian variation of saliva secretion is relatively similar were selected as the panelists from candidates.
# The evaluation was performed using 15 g of each test sample per test according to the following method. As a blank, a test was performed in the same manner using 15 g of water in place of the test samples.
# (i) After 15 g of each sample is placed in the mouth and retained for 5 seconds, the sample is swallowed at one time.
# (ii) After 5 seconds, absorbent cotton (37.5 mm×37.5 mm×4 mm) is placed under (the back of) the tongue, and retained for 2 minutes.
# (iii) The absorbent cotton is removed from under the tongue, and the weight (g) of the cotton is measured. This weight is compared with the weight of the absorbent cotton before being placed in the mouth to calculate the difference in weight.
# The above test was performed using the same test sample twice per panelist, and the average was calculated. Based on the average of each panelist, the average and standard deviation of all of the panelists were calculated.
# Table 2 and FIG. 1 show the evaluation results (the average of 3 panelists). The results are shown as numerical values (relative values) standardized by setting the saliva secretion amount obtained by using the blank (water) as 1.
# Test substances (enzymatically modified isoquercitrin preparation, αG rutin, and quercetin) were dissolved in drinking water, and adjusted so that the rutin content (molarity) of the structure of each compound was 150 μM (see Table 1). Further, xanthan gum was added to the aqueous solutions, so that the content thereof was 0.1 mass %, thus thickening the solutions. For comparison, xanthan gum-free aqueous solutions (an aqueous enzymatically modified isoquercitrin solution, an aqueous αG rutin solution, an aqueous quercetin solution) at a concentration of 150 μM in terms of rutin were prepared in the same manner as in Experimental Example 1.
# The salivation-promoting effect of each test sample prepared above was evaluated in the same manner as in Experimental Example 1 (the panelists were also the same). Table 3 and FIG. 2 show the evaluation results (the average of 3 panelists).
# [2] = tested on: saliva secretion in mice; conditions: cited from earlier work
# [3] = 75 μM aqueous solution (in terms of rutin or molarity of quercetin), 15 g
# [4] = 150 μM aqueous solution (in terms of rutin or molarity of quercetin), 15 g
# [5] = 750 μM aqueous solution (in terms of rutin or molarity of quercetin), 15 g
# [6] = 3750 μM aqueous solution (in terms of rutin or molarity of quercetin), 15 g
# [7] = Non-thickened: 150 μM, xanthan gum-free, viscosity 1 mPa·s
# [8] = Thickened: 150 μM with 0.1 mass % xanthan gum, viscosity 20 mPa·s
Compound,"Amount of salivation (standardized with water) [1, 3]","Amount of salivation (standardized with water) [1, 4]","Amount of salivation (standardized with water) [1, 5]","Amount of salivation (standardized with water) [1, 6]","Salivation-promoting (saliva secretion-increasing) effect, in words [1]","Salivation-promoting (saliva secretion-increasing) effect, in words ([1]; listed as α-glucosylrutin)","Enhancement of the salivation-promoting effect by incorporating a thickening polysaccharide (thickening), in words [1]","Amount of salivation (standardized with water) [1, 7]","Amount of salivation (standardized with water) [1, 8]",Effect on hyposalivation ([2]; model mice having disturbance of salivary secretion created by radiation exposure),Effect on saliva secretion ([2]; normal mice)
α-glucosylrutin [αG rutin],0.910,0.841,0.872,0.932,not observed,no salivation-promoting effect,not observed,0.841,0.719,,
O=c1c(O)c(-c2ccc(O)c(O)c2)oc2cc(O)cc(O)c12 [quercetin],0.989,0.826,1.032,1.132,not observed; also recorded: no salivation-promoting effect,,not observed,0.826,0.868,reduces hyposalivation,enhances saliva secretion
